US12662479B2 (Foghorn Therapeutics Inc., priority 2020, dated 2026)

What was measured:
[1] = target: T1, HiBit-BRG1 fusion protein (Homo sapiens, UniProt P51532); test: HiBiT-BRG1 cell-based degradation assay (Nano-Glo HiBiT Lytic Detection, 24 h); conditions: HeLa cells expressing HiBit-BRG1 and LgBit; for DC50: read-out: BRG1 HiBit Degradation IC50; for Dmax: HeLa, top dose 30 μM, read-out: BRG1 HiBit Degradation Maximum measured
T1 construct: expressed in transfected cells
Method in brief: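 Stable HeLa line expressing HiBiT-BRG1 and LgBiT, seeded at 5000 cells/well; luminescence read after lytic Nano-Glo HiBiT reagent and 10 min shaking at RT. % degradation normalised between DMSO (high control) and 2 μM reference BRM/BRG1 degrader (low control).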

HiBit-BRM fusion protein = target: T2, HiBit-BRM fusion protein (Homo sapiens, UniProt P51531); test: HiBiT-BRM cell-based degradation assay (Nano-Glo HiBiT Lytic Detection, 24 h); conditions: HeLa cells expressing HiBiT-BRM; for DC50: read-out: BRM HiBit Degradation IC50; for BRM HiBit Degradation Maximum measured: top dose 30 μM
T2 construct: expressed in transfected cells
T2 sequence (P51531 whole entry, the tested form may be a part): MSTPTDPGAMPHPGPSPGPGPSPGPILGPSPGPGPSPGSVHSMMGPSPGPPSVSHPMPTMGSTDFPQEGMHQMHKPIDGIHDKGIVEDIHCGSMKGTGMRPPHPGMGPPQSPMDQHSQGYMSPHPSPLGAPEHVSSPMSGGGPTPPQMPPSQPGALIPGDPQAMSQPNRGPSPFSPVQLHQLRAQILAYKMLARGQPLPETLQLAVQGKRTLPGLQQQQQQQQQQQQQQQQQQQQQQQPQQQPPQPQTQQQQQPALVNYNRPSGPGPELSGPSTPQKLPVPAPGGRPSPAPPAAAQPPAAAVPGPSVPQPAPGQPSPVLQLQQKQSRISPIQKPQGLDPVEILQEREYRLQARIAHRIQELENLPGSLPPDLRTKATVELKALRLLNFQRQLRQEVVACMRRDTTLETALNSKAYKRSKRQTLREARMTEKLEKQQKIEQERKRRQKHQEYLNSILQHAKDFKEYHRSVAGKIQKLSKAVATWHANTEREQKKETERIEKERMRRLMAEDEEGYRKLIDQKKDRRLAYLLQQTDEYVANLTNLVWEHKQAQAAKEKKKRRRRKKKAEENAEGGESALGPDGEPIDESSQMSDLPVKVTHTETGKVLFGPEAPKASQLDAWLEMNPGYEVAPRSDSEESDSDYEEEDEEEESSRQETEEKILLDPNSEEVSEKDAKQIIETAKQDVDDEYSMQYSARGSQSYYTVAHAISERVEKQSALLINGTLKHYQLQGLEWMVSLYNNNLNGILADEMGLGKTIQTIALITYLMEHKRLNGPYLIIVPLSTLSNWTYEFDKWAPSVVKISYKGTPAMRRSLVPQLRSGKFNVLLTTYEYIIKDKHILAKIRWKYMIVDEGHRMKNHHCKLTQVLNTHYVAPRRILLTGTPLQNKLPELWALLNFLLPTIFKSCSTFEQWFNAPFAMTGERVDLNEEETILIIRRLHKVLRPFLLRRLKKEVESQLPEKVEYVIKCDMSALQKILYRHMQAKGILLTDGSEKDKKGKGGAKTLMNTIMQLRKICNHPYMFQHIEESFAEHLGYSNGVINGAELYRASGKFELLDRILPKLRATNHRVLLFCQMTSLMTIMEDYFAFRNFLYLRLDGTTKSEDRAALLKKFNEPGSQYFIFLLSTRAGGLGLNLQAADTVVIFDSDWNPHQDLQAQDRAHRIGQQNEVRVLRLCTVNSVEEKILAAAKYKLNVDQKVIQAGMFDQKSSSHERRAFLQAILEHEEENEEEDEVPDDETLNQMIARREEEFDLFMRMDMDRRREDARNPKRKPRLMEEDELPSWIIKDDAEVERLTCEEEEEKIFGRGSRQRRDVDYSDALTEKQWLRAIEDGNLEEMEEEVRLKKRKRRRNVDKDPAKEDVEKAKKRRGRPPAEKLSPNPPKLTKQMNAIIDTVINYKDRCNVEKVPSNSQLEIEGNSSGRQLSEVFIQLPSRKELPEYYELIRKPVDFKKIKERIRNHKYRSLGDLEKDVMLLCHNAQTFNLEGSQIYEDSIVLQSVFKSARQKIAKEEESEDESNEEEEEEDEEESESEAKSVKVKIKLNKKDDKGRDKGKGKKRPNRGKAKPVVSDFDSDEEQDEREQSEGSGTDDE
Method in brief: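 Luminescence from reconstituted NanoBiT luciferase in lysed HeLa HiBiT-BRM cells served as the measure of remaining BRM after 24 h treatment. Compounds were tested from 30 μM final downward in 3-fold steps. DMSO and 2 μM of a standard BRM/BRG1 degrader defined the scale limits.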

T1 sequence (P51532 whole entry, the tested form may be a part): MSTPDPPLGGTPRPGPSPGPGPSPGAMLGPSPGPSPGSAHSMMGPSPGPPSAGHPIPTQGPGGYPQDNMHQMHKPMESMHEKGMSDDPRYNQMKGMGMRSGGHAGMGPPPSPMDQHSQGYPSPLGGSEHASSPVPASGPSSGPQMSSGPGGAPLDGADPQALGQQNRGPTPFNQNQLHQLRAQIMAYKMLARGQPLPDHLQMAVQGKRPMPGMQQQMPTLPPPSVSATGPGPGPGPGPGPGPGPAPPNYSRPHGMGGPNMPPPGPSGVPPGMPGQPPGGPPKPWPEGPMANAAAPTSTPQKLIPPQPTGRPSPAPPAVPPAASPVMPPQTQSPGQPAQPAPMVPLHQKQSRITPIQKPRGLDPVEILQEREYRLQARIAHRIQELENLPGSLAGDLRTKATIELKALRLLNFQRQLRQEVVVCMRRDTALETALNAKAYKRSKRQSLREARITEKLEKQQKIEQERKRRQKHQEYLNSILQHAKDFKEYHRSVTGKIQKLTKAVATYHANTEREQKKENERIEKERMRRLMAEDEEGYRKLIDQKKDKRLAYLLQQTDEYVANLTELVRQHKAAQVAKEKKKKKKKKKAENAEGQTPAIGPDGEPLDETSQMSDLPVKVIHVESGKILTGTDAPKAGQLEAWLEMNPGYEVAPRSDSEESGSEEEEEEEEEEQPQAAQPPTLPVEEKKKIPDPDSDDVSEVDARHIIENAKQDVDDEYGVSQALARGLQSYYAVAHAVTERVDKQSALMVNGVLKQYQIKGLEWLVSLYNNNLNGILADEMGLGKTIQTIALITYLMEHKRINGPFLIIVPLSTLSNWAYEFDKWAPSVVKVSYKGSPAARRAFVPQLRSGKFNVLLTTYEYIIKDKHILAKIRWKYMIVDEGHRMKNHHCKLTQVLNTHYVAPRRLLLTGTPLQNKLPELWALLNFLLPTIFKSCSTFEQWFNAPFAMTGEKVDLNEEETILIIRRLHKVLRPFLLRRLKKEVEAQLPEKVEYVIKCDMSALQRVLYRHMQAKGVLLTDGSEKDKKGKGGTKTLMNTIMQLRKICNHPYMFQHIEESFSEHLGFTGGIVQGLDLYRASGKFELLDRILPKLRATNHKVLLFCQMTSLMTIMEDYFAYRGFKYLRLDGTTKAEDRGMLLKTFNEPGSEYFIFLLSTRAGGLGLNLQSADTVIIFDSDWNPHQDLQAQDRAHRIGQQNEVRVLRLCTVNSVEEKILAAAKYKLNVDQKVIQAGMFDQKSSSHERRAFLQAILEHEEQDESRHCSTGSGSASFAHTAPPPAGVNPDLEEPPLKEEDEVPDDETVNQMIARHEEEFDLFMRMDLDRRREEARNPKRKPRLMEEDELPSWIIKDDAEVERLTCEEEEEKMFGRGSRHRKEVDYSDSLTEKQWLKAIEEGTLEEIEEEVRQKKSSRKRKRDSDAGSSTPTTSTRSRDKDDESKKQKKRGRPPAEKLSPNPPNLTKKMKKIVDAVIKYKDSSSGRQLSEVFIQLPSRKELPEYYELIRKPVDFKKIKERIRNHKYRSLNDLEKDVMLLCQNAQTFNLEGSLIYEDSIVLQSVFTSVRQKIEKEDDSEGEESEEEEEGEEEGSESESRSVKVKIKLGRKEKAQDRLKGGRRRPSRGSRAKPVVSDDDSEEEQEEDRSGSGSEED

SMILES	DC50 [1] [nM]	Dmax [1] [%]	DC50 (HiBit-BRM fusion protein) [nM]	BRM HiBit Degradation Maximum measured (HiBit-BRM fusion protein)
CS(=O)(=O)n1ccc(C(=O)NCC(=O)Nc2nc(-c3cccc(-c4cccc(CNC(=O)CCOCCOCCOc5ccc6c(c5)C(=O)N(C5CCC(=O)NC5=O)C6=O)c4)c3)cs2)c1 (centres unmarked) [Compound 55, N-[2-[[4-[3-[3-[[3-[2-[2-[2-(2,6-dioxo-3-piperidyl)-1,3-dioxo-isoindolin-5-yl]oxyethoxy]ethoxy]propanoylamino]-methyl]phenyl]phenyl]thiazol-2-yl]amino]-2-oxo-ethyl]-1-methylsulfonyl-pyrrole-3-carboxamide]	100 to 1000	50 to 75	100 to 1000	B (‘B’ = Maximum degradation ≥50% and ≤75%)
Cc1ncsc1-c1ccc(CNC(=O)[C@@H]2C[C@@H](O)CN2C(=O)[C@@H](NC(=O)CCCC(=O)NCc2cccc(-c3cccc(-c4csc(NC(=O)CNC(=O)c5ccn(S(C)(=O)=O)c5)n4)c3)c2)C(C)(C)C)cc1 [Compound 56, N′-[(1S)-1-[(2S,4R)-4-hydroxy-2-[[4-(4-methylthiazol-5-yl)phenyl]methylcarbamoyl]pyrrolidine-1-carbonyl]-2,2-dimethyl-propyl]-N-[[3-[3-[2-[[2-[(1-methylsulfonylpyrrole-3-carbonyl)amino]acetyl]amino]thiazol-4-yl]phenyl]phenyl]methyl]pentanediamide]	> 10000	< 50	> 10000	C (‘C’ = Maximum degradation <50%)
CS(=O)(=O)n1ccc(C(=O)NCC(=O)Nc2nc(-c3cccc(-c4cccc(CNC(=O)CCCCOc5cccc6c5C(=O)N(C5CCC(=O)NC5=O)C6=O)c4)c3)cs2)c1 (centres unmarked) [Compound 57, N-(2-((4-(3′-((5-((2-(2,6-dioxopiperidin-3-yl)-1,3-dioxoisoindolin-4-yl)oxy)pentanamido)methyl)-[1,1′-biphenyl]-3-yl)thiazol-2-yl)amino)-2-oxoethyl)-1-(methylsulfonyl)-1H-pyrrole-3-carboxamide]	> 10000	< 50	> 10000	C (‘C’ = Maximum degradation <50%)
CS(=O)(=O)n1ccc(C(=O)NCC(=O)Nc2nc(-c3cccc(-c4cccc(CNC(=O)C5CC5CNC(=O)COc5ccc6c(c5)C(=O)N(C5CCC(=O)NC5=O)C6=O)c4)c3)cs2)c1 (centres unmarked) [Compound 61, N-[2-[[4-[3-[3-[[[2-[[[2-[2-(2,6-dioxo-3-piperidyl)-1,3-dioxo-isoindolin-5-yl]oxyacetyl]amino]methyl]-cyclopropanecarbonyl]amino]methyl]-phenyl]phenyl]thiazol-2-yl]amino]-2-oxo-ethyl]-1-methylsulfonyl-pyrrole-3-carboxamide]	100 to 1000	50 to 75	1000 to 10000	B (‘B’ = Maximum degradation ≥50% and ≤75%)
Cc1ncsc1-c1ccc(CNC(=O)[C@@H]2C[C@@H](O)CN2C(=O)[C@@H](NC(=O)CCCCCC(=O)NCc2cccc(-c3cccc(-c4csc(NC(=O)CNC(=O)c5ccn(S(C)(=O)=O)c5)n4)c3)c2)C(C)(C)C)cc1 [Compound 62, N1-((S)-1-((2S,4R)-4-hydroxy-2-((4-(4-methylthiazol-5-yl)benzyl)carbamoyl)pyrrolidin-1-yl)-3,3-dimethyl-1-oxobutan-2-yl)-N7-((3′-(2-(2-(1-(methylsulfonyl)-1H-pyrrole-3-carboxamido)acetamido)thiazol-4-yl)-[1,1′-biphenyl]-3-yl)methyl)heptanediamide]	100 to 1000	> 75	100 to 1000	A (‘A’ = Maximum degradation >75%)
Cc1ncsc1-c1ccc(CNC(=O)[C@@H]2C[C@@H](O)CN2C(=O)[C@@H](NC(=O)CCC(=O)NCc2cccc(-c3cccc(-c4csc(NC(=O)CNC(=O)c5ccn(S(C)(=O)=O)c5)n4)c3)c2)C(C)(C)C)cc1 [Compound 63, N1-((S)-1-((2S,4R)-4-hydroxy-2-((4-(4-methylthiazol-5-yl)benzyl)carbamoyl)pyrrolidin-1-yl)-3,3-dimethyl-1-oxobutan-2-yl)-N4-((3′-(2-(2-(1-(methylsulfonyl)-1H-pyrrole-3-carboxamido)acetamido)thiazol-4-yl)-[1,1′-biphenyl]-3-yl)methyl)succinamide]	> 10000	< 50	> 10000	C (‘C’ = Maximum degradation <50%)
CS(=O)(=O)n1ccc(C(=O)NCC(=O)Nc2nc(-c3cccc(-c4cccc(CNC(=O)CCOCCOCCOc5cccc6c5C(=O)N(C5CCC(=O)NC5=O)C6=O)c4)c3)cs2)c1 (centres unmarked) [Compound 64, N-[2-[[4-[3-[3-[[3-[2-[2-[2-(2,6-dioxo-3-piperidyl)-1,3-dioxo-isoindolin-4-yl]oxyethoxy]ethoxy]propanoylamino]-methyl]phenyl]phenyl]thiazol-2-yl]amino]-2-oxo-ethyl]-1-methylsulfonyl-pyrrole-3-carboxamide]	> 10000	< 50	> 10000	C (‘C’ = Maximum degradation <50%)
Cc1ncsc1-c1ccc(CNC(=O)[C@@H]2C[C@@H](O)CN2C(=O)[C@@H](NC(=O)CCCCCCCCCC(=O)NCc2cccc(-c3cccc(-c4csc(NC(=O)CNC(=O)c5ccn(S(C)(=O)=O)c5)n4)c3)c2)C(C)(C)C)cc1 [Compound 65, N1-((S)-1-((2S,4R)-4-hydroxy-2-((4-(4-methylthiazol-5-yl)benzyl)carbamoyl)pyrrolidin-1-yl)-3,3-dimethyl-1-oxobutan-2-yl)-N11-((3′-(2-(2-(1-(methylsulfonyl)-1H-pyrrole-3-carboxamido)acetamido)thiazol-4-yl)-[1,1′-biphenyl]-3-yl)methyl)undecanediamide]	< 100	> 75	< 100	A (‘A’ = Maximum degradation >75%)
CN(CC(=O)NCCCCNc1ccc2c(c1)C(=O)N(C1CCC(=O)NC1=O)C2=O)c1cc(-c2cccc(-c3csc(NC(=O)CNC(=O)c4ccn(S(C)(=O)=O)c4)n3)c2)ccn1 (centres unmarked) [Compound 67]	> 10000	< 50	> 10000	C (‘C’ = Maximum degradation <50%)
CS(=O)(=O)n1ccc(C(=O)NCC(=O)Nc2nc(-c3cccc(-c4ccnc(OCCNC(=O)CCOCCOCCOc5cccc6c5C(=O)N(C5CCC(=O)NC5=O)C6=O)c4)c3)cs2)c1 (centres unmarked) [Compound 68, N-[2-[[4-[3-[2-[2-[3-[2-[2-[2-(2,6-dioxo-3-piperidyl)-1,3-dioxoisoindolin-4-yl]oxyethoxy]ethoxy]propanoylamino]ethoxy]-4-pyridyl]phenyl]thiazol-2-yl]amino]-2-oxo-ethyl]-1-methylsulfonyl-pyrrole-3-carboxamide]	100 to 1000	50 to 75	100 to 1000	B (‘B’ = Maximum degradation ≥50% and ≤75%)

Now from value to compound:

DC50 [1] [nM]	Dmax [1] [%]	DC50 (HiBit-BRM fusion protein) [nM]	BRM HiBit Degradation Maximum measured (HiBit-BRM fusion protein)	SMILES
< 100	> 75	< 100	A (‘A’ = Maximum degradation >75%)	CS(=O)(=O)n1ccc(C(=O)NCC(=O)Nc2nc(-c3cccc(-c4ccnc(C5(C(=O)NCCCCCCNc6ccc7c(c6)CN(C6CCC(=O)NC6=O)C7=O)CC5)c4)c3)cs2)c1 (centres unmarked) [Compound 53, N-(6-[[2-(2,6-dioxopiperidin-3-yl)-1-oxo-3H-isoindol-5-yl]amino]hexyl)-1-[4-[3-(2-[2-[(1-methanesulfonylpyrrol-3-yl)formamido]acetamido]-1,3-thiazol-4-yl)phenyl]pyridin-2-yl]cyclopropane-1-carboxamide]
> 10000	< 50	> 10000	C (‘C’ = Maximum degradation <50%)	CS(=O)(=O)n1ccc(C(=O)NCC(=O)Nc2nc(-c3cccc(-c4cccc(CNC(=O)CCCCCCCCNc5ccc6c(c5)C(=O)N(C5CCC(=O)NC5=O)C6=O)c4)c3)cs2)c1 (centres unmarked) [Compound 54, N-[2-[[4-[3-[3-[[9-[[2-(2,6-dioxo-3-piperidyl)-1,3-dioxo-isoindolin-5-yl]amino]nonanoylamino]methyl]-phenyl]phenyl]thiazol-2-yl]amino]-2-oxo-ethyl]-1-methylsulfonyl-pyrrole-3-carboxamide]
> 10000	< 50	> 10000	C (‘C’ = Maximum degradation <50%)	CS(=O)(=O)n1ccc(C(=O)NCC(=O)Nc2nc(-c3cccc(-c4cccc(CNC(=O)CCCCCCCOc5cccc6c5C(=O)N(C5CCC(=O)NC5=O)C6=O)c4)c3)cs2)c1 (centres unmarked) [Compound 59, N-(2-((4-(3′-((8-((2-(2,6-dioxopiperidin-3-yl)-1,3-dioxoisoindolin-4-yl)oxy)octanamido)methyl)-[1,1′-biphenyl]-3-yl)thiazol-2-yl)amino)-2-oxoethyl)-1-(methylsulfonyl)-1H-pyrrole-3-carboxamide]
> 10000	< 50	> 10000	C (‘C’ = Maximum degradation <50%)	CN(CC(=O)NCCCCCNc1ccc2c(c1)C(=O)N(C1CCC(=O)NC1=O)C2=O)c1cc(-c2cccc(-c3csc(NC(=O)CNC(=O)c4ccn(S(C)(=O)=O)c4)n3)c2)ccn1 (centres unmarked) [Compound 60]
